The values that follow come from PubChem BioAssay (NCI).

Test systems include HT29 colon; HCT-15 colon; MCF7 breast; HS 578T breast; ACHN renal; MDA-MB-231 breast; LOX IMVI melanoma; UACC-257 melanoma; DU-145 prostate; SR leukemia; MDA-N; 786-0 renal; OVCAR-3 ovarian; T-47D breast; SK-MEL-2 melanoma; NCI-H522 lung; RXF 393 renal; CCRF-CEM leukemia; A498 renal; TK-10 renal.
Common to all, as to experiment: inhibition of tumour cell growth, NCI panel, 48 h

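Grown in 96-well plates, cells were treated for 48 hours with each compound at five concentrations. Insufficient inhibition: endpoint recorded as highest concentration tested. TGI is the concentration that stops growth completely.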 Some results are limits rather than exact numbers.

On to `O=C(Cn1c(-c2ccccc2)cc2ccccc21)N1CCCC1`, for which the TGI in the assay on HT29 colon, in the assay on HCT-15 colon, in the assay with MCF7 breast, with HS 578T breast, with ACHN renal and with MDA-MB-231 breast was greater than 100 µM each time. For the same compound, the TGI with LOX IMVI melanoma, in the assay on UACC-257 melanoma, with DU-145 prostate, in the assay with SR leukemia, with MDA-N and in the assay on 786-0 renal was greater than 100 µM throughout. The TGI with OVCAR-3 ovarian, with T-47D breast, in the assay on SK-MEL-2 melanoma and in the assay on NCI-H522 lung was greater than 100 µM throughout.

Turning to `O=C1C=C(NCCOCCO)C(=O)c2c(O)ccc(O)c21`, the TGI was 42.2 µM in the assay with HT29 colon; 57.1 µM in the assay on HCT-15 colon; 40.1 µM with MCF7 breast; greater than 100 µM in the assay on RXF 393 renal; greater than 100 µM in the assay with HS 578T breast; 83 µM in the assay on ACHN renal. Moreover, the TGI in the assay with MDA-MB-231 breast was greater than 100 µM; in the assay on CCRF-CEM leukemia it was 76.2 µM; in the assay on LOX IMVI melanoma, 30 µM; in the assay on UACC-257 melanoma it was 38.4 µM; in the assay with A498 renal, greater than 100 µM; in the assay on DU-145 prostate, greater than 100 µM. Moreover, the TGI was 31.3 µM in the assay with MDA-N; greater than 100 µM in the assay on 786-0 renal; 65.4 µM in the assay on OVCAR-3 ovarian; greater than 100 µM in the assay with TK-10 renal; 59.8 µM with T-47D breast; 51.9 µM in the assay with SK-MEL-2 melanoma. The TGI with NCI-H522 lung was found to be 47.1 µM.

In the case of `CC1CN=C(N(C(=O)Nc2ccc(Cl)c(Cl)c2)c2ccccc2)S1` (stereo not drawn), the TGI in the assay on HT29 colon, in the assay on HCT-15 colon, in the assay on MCF7 breast, in the assay on HS 578T breast, in the assay with ACHN renal and with MDA-MB-231 breast was greater than 100 µM throughout. Also, the TGI in the assay with CCRF-CEM leukemia, with LOX IMVI melanoma, in the assay on UACC-257 melanoma, in the assay with A498 renal, with DU-145 prostate and with MDA-N was greater than 100 µM throughout. Also, the TGI in the assay with 786-0 renal is greater than 100 µM; in the assay with OVCAR-3 ovarian, greater than 100 µM; in the assay with TK-10 renal it was greater than 100 µM; with T-47D breast it was greater than 100 µM; with SK-MEL-2 melanoma, 97.1 µM.

For the compound `Cc1nc2ccc(F)cc2c2c1CCN2c1ccc(Cl)cc1`, the TGI in the assay with HT29 colon is 22.4 µM; in the assay on HCT-15 colon, greater than 100 µM; with MCF7 breast, 26.4 µM; in the assay with RXF 393 renal it was 55.7 µM; in the assay with HS 578T breast, 79.5 µM; in the assay with ACHN renal, 96.2 µM. The TGI in the assay with MDA-MB-231 breast was 30.6 µM; in the assay with CCRF-CEM leukemia, 31 µM; with LOX IMVI melanoma, 33 µM; in the assay on UACC-257 melanoma it was 13.8 µM; in the assay with A498 renal, 73.1 µM; in the assay with DU-145 prostate, greater than 100 µM. Further, the TGI with MDA-N is 21.7 µM; in the assay with 786-0 renal, 34.9 µM; with OVCAR-3 ovarian it was greater than 100 µM; in the assay with TK-10 renal, 41.7 µM; in the assay with SK-MEL-2 melanoma, 41.4 µM; in the assay with NCI-H522 lung, 30.5 µM.

Regarding `CN1C(=O)C2CCCC(=O)N2c2cccnc21` (stereo not drawn), the TGI in the assay with HT29 colon, with HCT-15 colon, in the assay on MCF7 breast, in the assay on HS 578T breast, in the assay on ACHN renal and with MDA-MB-231 breast was greater than 100 µM each time. Further, the TGI with CCRF-CEM leukemia, in the assay with LOX IMVI melanoma, in the assay with UACC-257 melanoma, with DU-145 prostate, in the assay on SR leukemia and with MDA-N was greater than 100 µM each time. Also, the TGI in the assay on 786-0 renal, in the assay with OVCAR-3 ovarian, with TK-10 renal, with T-47D breast, in the assay with SK-MEL-2 melanoma and in the assay on NCI-H522 lung was greater than 100 µM each time.

Turning to `Cc1ccc(Cl)c2c(=O)c3ccc(N)cc3sc12`, the TGI was determined as 38.5 µM with HT29 colon; 54.9 µM in the assay with HCT-15 colon; 55.4 µM in the assay with MCF7 breast; 59.3 µM with RXF 393 renal; 33.6 µM in the assay on HS 578T breast; 57.5 µM in the assay on ACHN renal. In addition, the TGI in the assay with MDA-MB-231 breast was 74.8 µM; in the assay on CCRF-CEM leukemia, 50.4 µM; with UACC-257 melanoma, 90.7 µM; in the assay with A498 renal, 36.8 µM; with DU-145 prostate, greater than 100 µM; with MDA-N it was greater than 100 µM. Moreover, the TGI in the assay with 786-0 renal is greater than 100 µM; in the assay on OVCAR-3 ovarian, 47.7 µM; in the assay on TK-10 renal, greater than 100 µM; in the assay with T-47D breast, 87.1 µM; with SK-MEL-2 melanoma it was 44.6 µM.

In the case of `CC(=O)OCC1OC(OC2CC3C(C)(C)C(O)CC[C@]3(C)C3CCC45CC4(CCC5[C@@H](C)CC(O)C(O)C(C)(C)O)[C@]23C)C(O)C(O)C1O` (stereo partly drawn), the TGI in the assay on HT29 colon, in the assay with HCT-15 colon, in the assay on MCF7 breast, in the assay with RXF 393 renal, with HS 578T breast and in the assay with ACHN renal was greater than 10 µM each time. Besides, the TGI in the assay on MDA-MB-231 breast, in the assay with CCRF-CEM leukemia, in the assay on LOX IMVI melanoma, in the assay with UACC-257 melanoma, with A498 renal and in the assay with DU-145 prostate was greater than 10 µM each time. Moreover, the TGI in the assay with MDA-N, in the assay on 786-0 renal, in the assay with OVCAR-3 ovarian, in the assay on TK-10 renal, with T-47D breast and with SK-MEL-2 melanoma was greater than 10 µM in each case. The same compound came in with a TGI in the assay on NCI-H522 lung greater than 10 µM.

Consider `Cc1cc(C(F)(F)F)cc(-n2nc(NS(=O)(=O)c3cc(C)c(Cl)cc3S)nc2N)n1`, for which the TGI in the assay with HT29 colon, in the assay on HCT-15 colon, in the assay on MCF7 breast, with RXF 393 renal, with HS 578T breast and in the assay with ACHN renal was greater than 100 µM each time. Moreover, the TGI with MDA-MB-231 breast was greater than 100 µM; with CCRF-CEM leukemia, 54.1 µM; with LOX IMVI melanoma it was greater than 100 µM; with UACC-257 melanoma, greater than 100 µM; in the assay on A498 renal it was 56.1 µM; in the assay with SR leukemia, greater than 100 µM. Also, the TGI in the assay with MDA-N, in the assay on 786-0 renal, with OVCAR-3 ovarian, in the assay with TK-10 renal, with T-47D breast and with SK-MEL-2 melanoma was greater than 100 µM throughout. The compound further yielded a TGI in the assay with NCI-H522 lung of 91.5 µM.
